Experimental data: US20130072430A1, “METHODS FOR TREATMENT OR PROPHYLAXIS OF KIDNEY OR LIVER DYSFUNCTION” (NPS PHARMACEUTICALS, INC., priority 2010, published 2013)

Test system: Human patients with short bowel syndrome
Test: Example 1: kidney diagnostic biomarkers (urea nitrogen, creatinine, GFR) in short bowel syndrome patients, every four weeks for 24 weeks
Format: in vivo
Design: CREATININE (RATE BLANKED) Change from Baseline, Median / GFR, Median / GFR Change from Baseline, Median / UREA NITROGEN, Median / UREA NITROGEN Change from Baseline, Median: unit not given here
Conditions: for CREATININE (RATE BLANKED), Median: unit assumed
Protocol: Human patients with short bowel syndrome were divided into three groups: a control group (16 total individuals) to receive placebo, an experimental group (35 total individuals) to receive teduglutide at 0.05 mg/kg/day throughout the study, and an experimental group (32 total individuals) to receive teduglutide at 0.1 mg/kg/day throughout the study. Patients were treated by subcutaneous injection of placebo or the appropriate dose of teduglutide. As individuals with short bowel syndrome are likely to experience associated liver and kidney disease, known biomarkers of liver and kidney function were monitored every four weeks, for 24 weeks. The liver biomarkers tested included total bilirubin, ALT and AST and ALP. The kidney biomarkers tested included urea nitrogen, creatinine and GFR. Before administration of placebo or teduglutide, diagnostic biomarker levels were tested to establish a baseline for each individual.
To visualize the effect of GLP-2 on the levels of the diagnostic biomarkers, the average change from baseline was calculated for the placebo and teduglutide treated groups for each visit after a baseline was established. The average change from baseline of each group is depicted in FIGS. […]. The numerical figures for each diaanostic biomarker at each time point are depicted in Table 1.
The raw data for this sorting is reproduced in Table 2 below.

[1] = Week 4, range <−5%, teduglutide 0.05 mg/kg/day
[2] = Week 4, range <−5%, teduglutide 0.1 mg/kg/day
[3] = Week 4, range >5%, teduglutide 0.05 mg/kg/day
[4] = Week 4, range >5%, teduglutide 0.1 mg/kg/day
[5] = Week 4, range −5%<= and <=5%, teduglutide 0.05 mg/kg/day
[6] = Week 4, range −5%<= and <=5%, teduglutide 0.1 mg/kg/day
[7] = Week 8, range <−5%, teduglutide 0.05 mg/kg/day
[8] = Week 8, range <−5%, teduglutide 0.1 mg/kg/day
[9] = Week 8, range >5%, teduglutide 0.05 mg/kg/day
[10] = Week 8, range >5%, teduglutide 0.1 mg/kg/day
[11] = Week 8, range −5%<= and <=5%, teduglutide 0.05 mg/kg/day
[12] = Week 8, range −5%<= and <=5%, teduglutide 0.1 mg/kg/day
[13] = Week 12, range <−5%, teduglutide 0.05 mg/kg/day
[14] = Week 12, range <−5%, teduglutide 0.1 mg/kg/day
[15] = Week 12, range >5%, teduglutide 0.05 mg/kg/day

## CC[C@H](C)[C@H](NC(=O)[C@H](Cc1ccccc1)NC(=O)[C@H](CC(=O)O)NC(=O)[C@H](CCCNC(=N)N)NC(=O)[C@H](C)NC(=O)[C@H](C)NC(=O)[C@H](CC(C)C)NC(=O)[C@H](CC(N)=O)NC(=O)[C@H](CC(=O)O)NC(=O)[C@H](CC(C)C)NC(=O)[C@@H](NC(=O)[C@@H](NC(=O)[C@H](CC(N)=O)NC(=O)[C@H](CCSC)NC(=O)[C@H](CCC(=O)O)NC(=O)[C@H](CC(=O)O)NC(=O)[C@H](CO)NC(=O)[C@H](Cc1ccccc1)NC(=O)[C@H](CO)NC(=O)CNC(=O)[C@H](CC(=O)O)NC(=O)CNC(=O)[C@@H](N)Cc1c[nH]cn1)[C@@H](C)O)[C@@H](C)CC)C(=O)N[C@@H](CC(N)=O)C(=O)N[C@@H](Cc1c[nH]c2ccccc12)C(=O)N[C@@H](CC(C)C)C(=O)N[C@H](C(=O)N[C@@H](CCC(N)=O)C(=O)N[C@H](C(=O)N[C@@H](CCCCN)C(=O)N[C@H](C(=O)N[C@H](C(=O)N[C@@H](CC(=O)O)C(=O)O)[C@@H](C)O)[C@@H](C)CC)[C@@H](C)O)[C@@H](C)CC [teduglutide]
0.10 mg/kg/day, DW20
  GFR, Median: 76.1
  UREA NITROGEN Change from Baseline, Mean (SD): −0.0 (1.60)
  UREA NITROGEN Change from Baseline, Median: −0.1
  UREA NITROGEN, Mean (SD): 6.3 (1.91)
  UREA NITROGEN, Median: 6.0
  CREATININE (RATE BLANKED), Median: 88 µmol/L
0.10 mg/kg/day, DW24
  CREATININE (RATE BLANKED) Change from Baseline, Mean (SD): −2.0 (13.18)
  CREATININE (RATE BLANKED) Change from Baseline, Median: 0.0
  CREATININE (RATE BLANKED), Mean (SD): 82.0 (22.35)
  GFR Change from Baseline, Mean (SD): 4.6 (16.73)
  GFR Change from Baseline, Median: 2.3
  GFR, Mean (SD): 82.4 (27.05)
  GFR, Median: 81.1
  UREA NITROGEN Change from Baseline, Mean (SD): −0.2 (1.87)
  UREA NITROGEN Change from Baseline, Median: 0.3
  UREA NITROGEN, Mean (SD): 6.1 (1.98)
  UREA NITROGEN, Median: 5.9
  CREATININE (RATE BLANKED), Median: 81 µmol/L
[1]
  CREATININE (RATE BLANKED) change from baseline: patients in range, n(%): 7(20.0%)
  GFR change from baseline: patients in range, n(%): 13(37.1%)
  UREA NITROGEN change from baseline: patients in range, n(%): 16(45.7%)
[2]
  CREATININE (RATE BLANKED) change from baseline: patients in range, n(%): 12(37.5%)
  GFR change from baseline: patients in range, n(%): 7(21.9%)
  UREA NITROGEN change from baseline: patients in range, n(%): 10(31.3%)
[3]
  CREATININE (RATE BLANKED) change from baseline: patients in range, n(%): 14(40.0%)
  GFR change from baseline: patients in range, n(%): 8(22.9%)
  UREA NITROGEN change from baseline: patients in range, n(%): 7(20.0%)
[4]
  CREATININE (RATE BLANKED) change from baseline: patients in range, n(%): 7(21.9%)
  GFR change from baseline: patients in range, n(%): 14(43.8%)
  UREA NITROGEN change from baseline: patients in range, n(%): 15(46.9%)
[5]
  CREATININE (RATE BLANKED) change from baseline: patients in range, n(%): 9(25.7%)
  GFR change from baseline: patients in range, n(%): 9(25.7%)
  UREA NITROGEN change from baseline: patients in range, n(%): 7(20.0%)
[6]
  CREATININE (RATE BLANKED) change from baseline: patients in range, n(%): 13(40.6%)
  GFR change from baseline: patients in range, n(%): 11(34.4%)
  UREA NITROGEN change from baseline: patients in range, n(%): 7(21.9%)
[7]
  CREATININE (RATE BLANKED) change from baseline: patients in range, n(%): 11(31.4%)
  GFR change from baseline: patients in range, n(%): 9(25.7%)
  UREA NITROGEN change from baseline: patients in range, n(%): 14(40.0%)
[8]
  CREATININE (RATE BLANKED) change from baseline: patients in range, n(%): 8(25.0%)
  GFR change from baseline: patients in range, n(%): 9(28.1%)
  UREA NITROGEN change from baseline: patients in range, n(%): 9(28.1%)
[9]
  CREATININE (RATE BLANKED) change from baseline: patients in range, n(%): 10(28.6%)
  GFR change from baseline: patients in range, n(%): 12(34.3%)
  UREA NITROGEN change from baseline: patients in range, n(%): 10(28.6%)
[10]
  CREATININE (RATE BLANKED) change from baseline: patients in range, n(%): 13(40.6%)
  GFR change from baseline: patients in range, n(%): 9(28.1%)
  UREA NITROGEN change from baseline: patients in range, n(%): 15(46.9%)
[11]
  CREATININE (RATE BLANKED) change from baseline: patients in range, n(%): 8(22.9%)
  GFR change from baseline: patients in range, n(%): 7(20.0%)
  UREA NITROGEN change from baseline: patients in range, n(%): 5(14.3%)
[12]
  CREATININE (RATE BLANKED) change from baseline: patients in range, n(%): 10(31.3%)
  GFR change from baseline: patients in range, n(%): 13(40.6%)
  UREA NITROGEN change from baseline: patients in range, n(%): 7(21.9%)
[13]
  CREATININE (RATE BLANKED) change from baseline: patients in range, n(%): 7(20.0%)
  GFR change from baseline: patients in range, n(%): 15(42.9%)
  UREA NITROGEN change from baseline: patients in range, n(%): 17(48.6%)
[14]
  CREATININE (RATE BLANKED) change from baseline: patients in range, n(%): 9(28.1%)
  GFR change from baseline: patients in range, n(%): 11(34.4%)
  UREA NITROGEN change from baseline: patients in range, n(%): 13(40.6%)
[15]
  CREATININE (RATE BLANKED) change from baseline: patients in range, n(%): 16(45.7%)
  GFR change from baseline: patients in range, n(%): 6(17.1%)
  UREA NITROGEN change from baseline: patients in range, n(%): 6(17.1%)
